Results from patent US7074761B1, “Peptides and production and use thereof” (Takeda Chemical Ind., Ltd., priority 1996, dated 2006).
Where a SMILES comes first, the peptide text is derived from it. Bridges are numbered along the chain shown (N, C = ends).

How the values were obtained:
human SSTR5 = target: T1, human SSTR5 (Homo sapiens, UniProt P35346); assay: [125I]-somatostatin binding inhibition, SSTR5 CHO cell membrane fraction; conditions: 25° C., 60 minutes
T1 construct: expressed in transfected cells; host or cells: CHO(dhfr-) cells, clone SSTR5-32-4, plasmid pA-1-11-SSTR5 (vector pAKKO-111)
Protocol: CHO(dhfr^−) cells (1×10^6 cells) were cultured on HAM F12 medium containing 10% fetal bovine serum in a dish with a diameter of 8 cm for 24 hours. Into these cells was introduced 10 μg of the human SSTR5 cDNA expression plasmid pA-1-11-SSTR5 obtained as described above in (2) by the calcium phosphate method (Cell Phect Transfection Kit; Pharmacia). At 24 hours after transfection, the medium was exchanged for DMEM containing 10% dialyzed fetal bovine serum, and cells forming a colony on this medium (namely DHFR^+ cells) were selected. Further, the cells selected were treated by the limiting dilution method for cloning from a single cell, and the cells thus cloned were measured for their somatostatin receptor protein expression ability by the binding assay described in Reference Example 1 (3). In this manner, a cell line with high somatostatin-binding activity. SSTR5-32-4, was selected. […]
(§1) The membrane fractions prepared in Reference Example 6 were each diluted to 3 μg/ml with assay buffer. […] After filtration, the radioactivity of [^125I]-somatostatin remaining on the filter paper was measured. For each test substance, the binding inhibition percentage (%) was calculated according to the formula: PBM=(B−NSB)/(B0−NSB)×100 (where PBM: percent maximum binding; B: radioactivity when the test sample is added; B0: maximum bound radioactivity; NSB: non-specifically bound radioactivity). […]

human SSTR4 [1] = target: T2, human SSTR4 (Homo sapiens, UniProt P31391); assay: [125I]-somatostatin binding inhibition, SSTR4 CHO cell membrane fraction; conditions: 25° C., 60 minutes
T2 construct: expressed in transfected cells; host or cells: CHO(dhfr-) cells, clone SSTR4-1-2, plasmid pA-1-11-SSTR4 (vector pAKKO-111)
Protocol: CHO(dhfr^−) cells (1×10^6 cells) were cultured on HAM F12 medium containing 10% fetal bovine serum in a dish with a diameter of 8 cm for 24 hours. Into these cells was introduced 10 μg of the human SSTR4 DNA expression plasmid pA-1-11-SSTR4 obtained as described above in (2) by the calcium phosphate method (Cell Phect Transfection Kit; Pharmacia). At 24 hours after transfection, the medium was exchanged for DMEM containing 10% dialyzed fetal bovine serum, and cells forming a colony on this medium (namely DHFR^+ cells) were selected. Further, the cells selected were treated by the limiting dilution method for cloning from a single cell, and the cells thus cloned were measured for their somatostatin receptor protein expression ability by the binding assay described in Reference Example 1 (3). In this manner, a cell line with high somatostatin-binding activity, SSTR4-1-2, was selected.
The human somatostatin receptor expressing CHO cell lines SSTR1-8-3, SSTR2-HS5-9, SSTR3-15-19, SSTR4-1-2 and SSTR5-32-4 (10^9 cells each) were respectively suspended in phosphate buffered physiological saline supplemented with 5 mM EDTA (PBS-EDTA) and centrifuged. To each cell pellet was added 10 ml of cell homogenation buffer (10 mM NaHCO3, 5 mM EDTA, pH=7.5), followed by homogenation with a Polytron homogenizer. The homogenate was centrifuged at 400×g for 15 minutes, and the supernatant obtained was further centrifuged at 100,000×g for 1 hour to give a membrane fraction as a precipitate. […]
as §1

human SSTR4 [2] = target: T2, human SSTR4; assay: cAMP accumulation inhibiting activity in SSTR4 expressing CHO cells (forskolin stimulated); type: cell-based; conditions: forskolin 10 μM, CHO cells SSTR4-1-2; read-out: ED50, inhibition of intracellular cAMP accumulation, SSTR4
Protocol: For measuring the intracellular accumulations of cyclic adenosine 3′,5′-monophosphate (cAMP), the human somatostatin receptor expressing cell lines SSTR2-HS5-9, SSTR3-15-19, SSTR4-1-2 and SSTR5-32-4 respectively described in Reference Example 2 (3), Reference Example 3 (3), Reference Example 4 (3) and Reference Example 5 (3) were multiplied on 24-well plates until confluency. Said cells were washed with two 1-ml portions of medium A [Dulbecco-'s modified Eagle's medium (DMEM), 20 mM 2-[4-(2-hydroxyethyl)-1-piperazinyl]ethanesulfonic acid (HEPES) (pH. 7.5), 0.2% BSA, 0.2 mM 3-isobutyl-1-methylxanthine (IBMX)] and then 400 μl of medium A was added to each well and incubation was carried out at 37° C. for 1 hour. To each well were added 50 μl of a hCS-15 or hCS-17 solution (each diluted to a concentration 10 times the final concentration with medium A) and 50 μl of a forskolin solution (final concentration: 10 μM), and incubation was carried out at 37° C. for 30 minutes. The cells were washed with two 1-ml portions of medium A and then 500 μl of medium A and 100 μL of 20% aqueous perchloric acid solution were added to each well, followed by standing at 4° C. for 20 minutes for cell lysis. […] The amount of cAMP contained in this extract was determined using an Amersham's kit (cAMP EIA system).

T2 sequence (P31391 whole entry): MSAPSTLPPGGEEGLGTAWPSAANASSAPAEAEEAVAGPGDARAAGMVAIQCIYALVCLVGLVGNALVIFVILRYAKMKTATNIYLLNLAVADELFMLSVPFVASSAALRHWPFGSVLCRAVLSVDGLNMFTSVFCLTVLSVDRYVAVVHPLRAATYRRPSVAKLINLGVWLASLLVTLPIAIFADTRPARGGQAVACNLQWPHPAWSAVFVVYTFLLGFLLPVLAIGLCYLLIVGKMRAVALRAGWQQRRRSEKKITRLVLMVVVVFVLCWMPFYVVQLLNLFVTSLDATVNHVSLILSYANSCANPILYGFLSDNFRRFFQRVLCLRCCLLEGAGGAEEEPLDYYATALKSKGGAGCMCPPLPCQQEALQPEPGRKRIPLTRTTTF
T1 sequence (P35346 whole entry): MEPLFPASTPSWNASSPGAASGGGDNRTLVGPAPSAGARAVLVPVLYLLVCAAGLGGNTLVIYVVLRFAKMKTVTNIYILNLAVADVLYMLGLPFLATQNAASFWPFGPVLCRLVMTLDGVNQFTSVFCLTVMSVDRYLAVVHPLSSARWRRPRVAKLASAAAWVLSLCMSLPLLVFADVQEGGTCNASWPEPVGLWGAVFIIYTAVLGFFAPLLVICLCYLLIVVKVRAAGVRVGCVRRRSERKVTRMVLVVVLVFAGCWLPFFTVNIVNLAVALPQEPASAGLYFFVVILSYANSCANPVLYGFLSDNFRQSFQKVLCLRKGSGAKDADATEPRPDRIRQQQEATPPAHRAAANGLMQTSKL

Row | IC50 (human SSTR5) [pM] | IC50 (human SSTR4 [1]) [pM] | EC50 (human SSTR4 [2]) [pM] | Structure (SMILES)
1 | 600 | 600 | 200 | CSCC[C@H](N)C(=O)N1CCC[C@H]1C(=O)N[C@H]1CSSC[C@@H](C(=O)N[C@@H](CCCCN)C(=O)O)NC(=O)[C@H](CO)NC(=O)[C@H](CO)NC(=O)[C@H](Cc2ccccc2)NC(=O)[C@H]([C@@H](C)O)NC(=O)[C@H](CCCCN)NC(=O)[C@H](Cc2c[nH]c3ccccc23)NC(=O)[C@H](Cc2ccccc2)NC(=O)[C@H](Cc2ccccc2)NC(=O)[C@H](CC(N)=O)NC(=O)[C@H](CCCNC(=N)N)NC1=O [hCS-15] (H-MPCRNFFWKTFSSCK-OH; disulfide 3-14; N-terminus and C-terminus assumed)
2 | – | 500 | – | CSCC[C@H](NC(=O)[C@H](CCCNC(=N)N)NC(=O)[C@@H](N)CC(=O)O)C(=O)N1CCC[C@H]1C(=O)N[C@H]1CSSC[C@@H](C(=O)N[C@@H](CCCCN)C(=O)O)NC(=O)[C@H](CO)NC(=O)[C@H](CO)NC(=O)[C@H](Cc2ccccc2)NC(=O)[C@H]([C@@H](C)O)NC(=O)[C@H](CCCCN)NC(=O)[C@H](Cc2c[nH]c3ccccc23)NC(=O)[C@H](Cc2ccccc2)NC(=O)[C@H](Cc2ccccc2)NC(=O)[C@H](CC(N)=O)NC(=O)[C@H](CCCNC(=N)N)NC1=O [hCS-17]
